In patent US20110217300A1, “Quinazolinone Compounds and Methods of Use Thereof” (priority 2007, published 2011):
pIC50: −log10 of the molar value. Where two headings read alike, the source gives them in different places.

Tests used:
HsEg5 = target: T1, HsEg5 (Homo sapiens, UniProt P52732); test: Fluorescence detection of HsEg5 ATPase activity (ADP Quest, automated); type: biochemical
T1 sequence (P52732 18-359 limits assumed): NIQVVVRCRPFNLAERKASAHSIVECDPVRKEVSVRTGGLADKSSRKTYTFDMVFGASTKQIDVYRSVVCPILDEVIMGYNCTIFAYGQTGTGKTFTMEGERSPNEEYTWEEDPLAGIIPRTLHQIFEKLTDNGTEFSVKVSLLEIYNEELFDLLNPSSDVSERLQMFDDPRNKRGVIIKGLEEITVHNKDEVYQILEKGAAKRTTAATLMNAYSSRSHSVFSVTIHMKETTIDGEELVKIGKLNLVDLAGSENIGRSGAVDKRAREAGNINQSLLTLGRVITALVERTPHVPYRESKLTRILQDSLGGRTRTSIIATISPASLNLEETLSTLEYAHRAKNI
Method: Purified HsEg5 motor fragment was activated by mixture with preformed MT polymer (Cytoskeleton, Denver, Colo.) at room temperature for 20 minutes. MT activated ATPase activity was measured using ADP Quest (DiscoverX, Fremont, Calif.) in which a coupled-enzyme assay can translate accumulation of ADP into detectable resorufin signal (FIG. 1A). Fluorescence was measured at λEx=535 nm and λEm=590 nm on a Wallac Victor 2 plate reader (Perkin-Elmer Life Sciences, Boston, Mass.). Reagent A and B from ADP Quest kit were aliquoted and frozen in −20° C. before use. A standard curve was determined using the provided ADP reagent in the reaction buffer that consisted of 50 mM Pipes (pH7.0), 5.0 mM MgCl2, 20 μM paclitaxel and […]. The same buffer was used for Km determination with HsEg5 concentration of 10 nM.
For inhibitor screening, 4 μL of compounds were incubated with 10 μL of MT-activated HsEg5 such that the final concentrations for compound range from 100 μM to 5 nM (1 to 3 serial dilutions, final concentration) and final concentration for HsEg5 is 10 nM. The mixture was incubated at room temperature for 10 minutes with mild shaking. The screening assay contained 0.3% DMSO in all reaction wells. We used wells containing only DMSO as negative controls and wells without ATP as background. Addition of 6 μL ATP (final concentration of 20 μM) initiated the ATP hydrolysis reaction. The 20 μL-reaction was allowed to proceed at room temperature for 10 minutes before addition of 10 μL of reagent A and 20 μL of reagent B. After 20-minute development at room temperature, the fluorescence was measured and data analysis was performed using GraphPad Prism version 3.0 (GraphPad Software, San Diego, Calif.)
For the purpose of high-throughput screening, we automated the fluorescence assay using a Sciclone ALH3000 (Caliper Life Sciences, Hopkinton, Mass.) and Multidrop 384 (Thermo Electron Corp, Waltham, Mass.). First, compound dilution plates for screening (at 10 μM or 1 μM) and ICso determination (10 data points from 100 μM to 5 nM) were made in Corning polypropylene V-bottom 96-well plates. In both cases, the 1st and 7th column contained background (No ATP addition) and negative control (DMSO only). For screening compounds at 10 μM or 1 μM, […] of each compound at 50 μM or 5 μM were used in a 20 μL assay reaction. For IC50 determination, the mother compound plate contained 24 μL of tested compound at stock concentration of 30 mM. 6 μL of each test compound in 30 mM was added to each well in the column 2 and followed by 1:3 serial dilutions in DMSO with the Sciclone ALH3000. 234 μL of assay buffer was then added using a Multidrop 384. Then 4 μL of diluted compounds was used in 20 μL-reaction. The final concentration was a 1:300 dilution of the original stock. Second, a reagent source plate was prepared with three rows designated to MT-activated HsEg5, Reagent A and Reagent B respectively. MTs were diluted with assay buffer and polymerized at room temperature for 10 minutes. Just before use, HsEg5 protein was thawed on ice and activated by addition of MT polymers at room temperature for 20 minutes. HsEg5/MT was then added to Row A of the reagent source plate. The final assay concentration was 10 nM HsEg5 and 500 nM MTs. Reagent A and B were stored at −20° C. and thawed at room temperature followed by transferring to rows B & C of the reagent source plate. Third, ATP substrate plate was prepared by transferring 80 μM ATP solution to each well of a V-shape 96-well plate except the wells in the first row where assay buffer was added instead to have no-ATP blanks. The final concentration for ATP in the assay was 20 μM.
The assay was programmed on Sciclone ALH3000 with the following procedures: 1) Addition of 4 μL compounds to the assay plate, followed by addition of 10 μL of MT-activated HsEg5. […]

NCI-H460 = test: MTS cell viability assay; type: cell-based, human; settings: Homo sapiens, NCI-H460, 72 h
Method: Cell viability was determined by measuring the activity of dehydrogenase enzymes in metabolically active cells using a tetrazolium compound, MTS. The assay was performed as described in Promega Technical Bulletin No. 169 (CellTiter 96 Aqueous Non-Radioactive Cell Proliferation Assay). Two human cancer cell lines were assayed (see, Table 1). Cells were maintained at 37° C. and 5% CO2 in DMEM media (4.5 g/L glucose) supplemented with 10% heat-inactivated FBS, 10 mM L-glutamine, and 10 mM Hepes pH 7.5. Briefly, cells were seeded in 96-well plates as set forth in Table 1 and incubated for 16-24 hours. Candidate compounds were serially diluted in DMSO, further diluted in cell culture media, and then added to cells (final DMSO concentration of 0.33%). Cells were incubated in the presence of candidate compound for 72 hours. MTS stock solution (MTS 2 gm/L, PMS […] in PBS) was added to the cells (final concentration MTS […] and PMS 7.67 mg/L) and incubated for 4 hours. SDS was added to a final concentration of 1.4% and absorbance at 490 nm was measured within two hours using a plate reader. […] GI50 values were given in Table 2 for the compounds listed. The Compound Numbers in Table 2 correspond to the numbers listed parenthetically in the Example titles. Where multiple measurements were made by different technicians, both values are given.
Cell viability was determined for N-(3-amino-propyl)-3-chloro-N—[(R)-1-(7-chloro-4-oxo-3-phenylamino-3,4-dihydro-quinazolin-2-yl)-but-3-ynyl]-2-fluoro-benzamide (compound I of Table 2). The cell viability assay of Example 105 was used. GI50 was determined using a variety of cell lines. Cells were plated at 100-5000 cells per well. At least 2 replicates were performed. Where multiple measurements were made by different technicians, both values are given.

A549 = test: MTS cell viability assay; type: cell-based; settings: Homo sapiens, A549 non small cell lung, 72 hours, read-out: MTS NCI A549 GI50
Method: Two human cancer cell lines were assayed (see, Table 1). Cells were maintained at 37° C. and 5% CO2 in DMEM media (4.5 g/L glucose) supplemented with 10% heat-inactivated FBS, 10 mM L-glutamine, and 10 mM Hepes pH 7.5. Briefly, cells were seeded in 96-well plates as set forth in Table 1 and incubated for 16-24 hours. Candidate compounds were serially diluted in DMSO, further diluted in cell culture media, and then added to cells (final DMSO concentration of 0.33%). Cells were incubated in the presence of candidate compound for 72 hours. […] The Compound Numbers in Table 2 correspond to the numbers listed parenthetically in the Example titles.

[1] = read-out: MTS NCI H460 GI50, NCI-H460 non small cell lung, 72 hours

Structure (SMILES)	pIC50 (HsEg5)	GI50 (NCI-H460; read-out: MTS NCI H460 GI50) [nM]	GI50 (A549) [nM]	GI50 (NCI-H460; [1]) [nM]	GI50 (A549; A549, 72 h) [nM]
CCC(c1nc2cc(Cl)ccc2c(=O)n1Nc1ccccc1)N(CCCN)C(=O)c1ccc(F)c(Cl)c1F (stereo not drawn) [Compound 20, N-(3-Aminopropyl)-N-[1-(3-anilino-7-chloro-4-oxo-3,4-dihydroquinazolin-2-yl)propyl]-3-chloro-2,4-difluorobenzamide]	6.07	1000	1800	–	–
CCC(c1nc2cc(Cl)ccc2c(=O)n1Nc1ccccc1)N(CCCN)C(=O)c1ccc(C)c(F)c1F (stereo not drawn) [Compound 21, N-(3-Aminopropyl)-N-[1-(3-anilino-7-chloro-4-oxo-3,4-dihydroquinazolin-2-yl)propyl]-2,3-difluoro-4-methylbenzamide]	5.90	–	–	1080	1930
CCC(c1nc2cc(Cl)ccc2c(=O)n1Nc1ccccc1)N(CCCN)C(=O)c1ccc2ccccc2n1 (stereo not drawn) [Compound 22, N-(3-Aminopropyl)-N-[1-(3-anilino-7-chloro-4-oxo-3,4-dihydroquinazolin-2-yl)propyl]quinoline-2-carboxamide]	5.79	1170	2080	–	–
CCC(c1nc2cc(Cl)ccc2c(=O)n1Nc1ccccc1)N(CCCN)C(=O)c1ccc(-n2cccn2)cc1 (stereo not drawn) [Compound 23, N-(3-Aminopropyl)-N-[1-(3-anilino-7-chloro-4-oxo-3,4-dihydroquinazolin-2-yl)propyl]-4-(1H-pyrazol-1-yl)benzamide]	5.99	–	–	1120	2490
CCC(c1nc2cc(Cl)ccc2c(=O)n1Nc1cccc(F)c1)N(CCCN)C(=O)c1ccc(C)cc1 (stereo not drawn) [Compound 24, N-(3-Aminopropyl)-N-(1-{7-chloro-3-[(3-fluorophenyl)amino]-4-oxo-3,4-dihydroquinazolin-2-yl}propyl)-4-methylbenzamide]	5.98	1090	1790	–	–
CCC(c1nc2cc(Cl)ccc2c(=O)n1Nc1ccccc1F)N(CCCN)C(=O)c1ccc(C)cc1 (stereo not drawn) [Compound 25, N-(3-Aminopropyl)-N-(1-{7-chloro-3-[(2-fluorophenyl)amino]-4-oxo-3,4-dihydroquinazolin-2-yl}propyl)-4-methylbenzamide]	5.84	959	1520	–	–
CCC(c1nc2cc(Cl)ccc2c(=O)n1Nc1cc(F)ccc1F)N(CCCN)C(=O)c1ccc(C)cc1 (stereo not drawn) [Compound 26, N-(3-Aminopropyl)-N-(1-{7-chloro-3-[(2,5-difluorophenyl)amino]-4-oxo-3,4-dihydroquinazolin-2-yl}propyl)-4-methylbenzamide]	6.03	889	1250	–	–
CCC(c1nc2ccc(Cl)cc2c(=O)n1Nc1ccccc1)N(CCCN)C(=O)c1ccc(C)cc1 (stereo not drawn) [Compound 27, N-(3-Aminopropyl)-N-[1-(3-anilino-6-chloro-4-oxo-3,4-dihydroquinazolin-2-yl)propyl]-4-methylbenzamide]	5.89	1080	2220	–	–
CCC(c1nc2ccc(C)cc2c(=O)n1Nc1ccccc1)N(CCCN)C(=O)c1ccc(C)cc1 (stereo not drawn) [Compound 28, N-(3-Aminopropyl)-N-[1-(3-anilino-6-methyl-4-oxo-3,4-dihydroquinazolin-2-yl)propyl]-4-methylbenzamide]	5.80	1350	2500	–	–
CCC(c1nc2cc(Cl)ccc2c(=O)n1Oc1ccccc1)N(CCCN)C(=O)c1ccc(C)cc1 (stereo not drawn) [Compound 29, N-(3-Aminopropyl)-N-[1-(7-chloro-4-oxo-3-phenoxy-3,4-dihydroquinazolin-2-yl)propyl]-4-methylbenzamide]	5.66	–	–	2090	3310
CCC(c1nc2cc(Cl)ccc2c(=O)n1OCc1ccccc1)N(CCCN)C(=O)c1ccc(C)cc1 (stereo not drawn) [Compound 32, N-(3-Aminopropyl)-N-{1-[3-(benzyloxy)-7-chloro-4-oxo-3,4-dihydroquinazolin-2-yl]propyl}-4-methylbenzamide]	5.86	956	1870	–	–
